≈ marks a conversion by molar mass, not a printed value.

The test system of series [1] is Plasmodium falciparum. Nature of the series: Antiplasmodial activity against CQ-sensitive Plasmodium falciparum F32 Tanzania assessed as parasite growth inhibition incubated for 48 hrs. Format: functional, organism-based.
In series [2] the test system is Plasmodium falciparum. Briefly: Antimalarial activity against Plasmodium falciparum 3D7 at asexual erythrocytic stage assessed as parasite growth inhibition measured after 24 hrs by [3H]-hypoxanthine incorporation assay. Format: functional, organism-based.
The test system of series [3] is Plasmodium falciparum. Briefly: Antimalarial activity against CQ-resistant Plasmodium falciparum K1. Format: functional, organism-based.
The test system of series [4] is Plasmodium falciparum. Nature of the series: Antimalarial activity against Plasmodium falciparum 3D7 assessed as inhibition of parasitemia incubated for 72 hrs by fluorescence based assay. The format is functional, organism-based. The note with it: 3D7, 72 h.
The test system of series [5] is Plasmodium falciparum. Nature of the series: Antimalarial activity against Plasmodium falciparum […] incubated for 48 hrs. Format: functional, organism-based.
The test system of series [6] is Plasmodium falciparum. Nature of the series: Antiplasmodial activity against Plasmodium falciparum 3D7 at asexual erythrocytic stage infected in human erythrocytes assessed as parasite growth inhibition incubated for 42 hrs by [3H]-hypoxanthine incorporation assay. Format: functional, organism-based. The note with it: 3D7, Erythrocyte.
Series [7] relates to Plasmodium falciparum. Briefly: Antimalarial activity against CQ-resistant Plasmodium falciparum Dd2. The format is functional, organism-based.
Series [8] in a line: Cytotoxicity against human erythrocytes. The format is toxicity, cell-based, Erythrocyte.
Series [9] relates to Plasmodium falciparum. Briefly: Antiplasmodial activity against CQ-sensitive Plasmodium falciparum NF54. Format: functional, organism-based.
Series [10] in a line: Cytotoxicity against African green monkey Vero cells. The format is toxicity, cell-based. The note with it: chlorocebus sabaeus.
The subject of series [11] is Plasmodium falciparum. Briefly: Antimalarial activity against Plasmodium falciparum 3D7 infected in erythrocytes assessed as parasite growth inhibition incubated for 42 hrs by [3H]-hypoxanthine incorporation assay. The note with it: 3D7, Erythrocyte. The format is functional, organism-based.
Series [12] deals with Plasmodium falciparum. Nature of the series: Antimalarial activity against Plasmodium falciparum K1 infected in A+ human erythrocytes assessed as reduction in parasite growth incubated for 72 hrs by SYBR Green I staining based analysis. The format is functional, organism-based. The note with it: K1, Erythrocyte.
Series [13] relates to Plasmodium falciparum. Nature of the series: Antimalarial activity against Plasmodium falciparum Dd2 infected in A+ human erythrocytes assessed as reduction in parasite growth incubated for 72 hrs by SYBR Green I staining based analysis. Format: functional, organism-based. The note with it: Dd2, Erythrocyte.
Series [14] relates to Plasmodium falciparum. Nature of the series: Antimalarial activity against Plasmodium falciparum 3D7 infected in A+ human erythrocytes assessed as reduction in parasite growth incubated for 72 hrs by SYBR Green I staining based analysis. The note with it: 3D7, Erythrocyte. Format: functional, organism-based.

Take `O=C1C=C(OCc2cn(-c3ccc(CO)cc3)nn2)C(=O)c2ccccc21`: in [1], the IC50 (usually the point on the concentration scale where inhibition reaches its midpoint) is 9.7 µM.

Regarding `Cc1cc(=O)oc2cc(OCc3cn(-c4ccc(S(N)(=O)=O)cc4)nn3)ccc12`, the 50% inhibitory concentration (IC50) in series [2] is 3.64 µM.

`C=CCn1cc(COc2ccc([C@@H]3[C@H](Oc4ccccc4)C(=O)N3c3ccccc3)cc2)nn1` displayed a 50% inhibitory concentration (IC50) in series [3] of 6.19 µM.

Turning to `O=c1ccc2ccc(OCc3cn(-c4ccc(S(=O)(=O)N5CCOCC5)cc4)nn3)cc2o1`, in series [2], the concentration for half-maximal inhibition (IC50) was more than 85.5 µM.

As for `Clc1ccc(N/N=C/c2cnn(-c3ccccc3)n2)cc1`, in series [4], the IC50 stood at 9.29 µM.

`Cc1nn(-c2ccccc2)c(-n2cncn2)c1C=O`: half-maximal inhibition in series [5] (IC50) was put at 1.32 µg/mL (≈ 5.21 µM).

On to `Cc1cc(C)nc(NS(=O)(=O)c2ccc(-n3cc(COc4cc(=O)oc5ccccc45)nn3)cc2)n1`, for which the half-inhibitory concentration (IC50) in series [2] is more than 79.4 µM.

Consider `CCCCn1cc(COC2=CC(=O)c3ccccc3C2=O)nn1`, for which, in [1], the IC50 is 11.2 µM.

Regarding `NS(=O)(=O)c1ccc(-n2cc(COc3ccccc3)nn2)cc1`, the IC50 in [6] is 15 µg/mL (≈ 45.4 µM).

`O=[N+]([O-])c1ccc(Cn2cc(-c3ccccc3CBr)nn2)cc1` had an IC50 in [7] of more than 100 µg/mL. Besides, the CC50 (commonly the concentration that lowers cell viability or growth by half) in series [8] was more than 100 µg/mL.

For `CC1(C)[C@@H](O)CC[C@]2(C)[C@H]3C(=O)C=C4[C@@H]5C[C@@](C)(C(=O)OCc6cn(-c7ccc(C#N)cc7)nn6)CC[C@]5(C)CC[C@@]4(C)[C@]3(C)CC[C@@H]12`, it took 1.14 µM to reach half-maximal inhibition in [9] (IC50). Also, in series [10], the CC50 came to 190 µM.

With `COc1ccc2cc3[n+](cc2c1OCc1cn(-c2ccc(S(=O)(=O)N4CCCCC4)cc2)nn1)CCc1cc2c(cc1-3)OCO2.[Cl-]`, in series [11], the half-inhibitory concentration (IC50) worked out at 0.8 µg/mL.

Turning to `Cc1ccc(-n2cc(COC(=O)[C@@]3(C)CC[C@]4(C)CC[C@]5(C)C(=CC(=O)[C@@H]6[C@@]7(C)CC[C@H](O)C(C)(C)[C@@H]7CC[C@]65C)[C@@H]4C3)nn2)cc1Cl`, the IC50 in series [9] stood at 4.03 µM. This compound also returned a CC50 in series [10] of 377 µM.

Regarding `O=[N+]([O-])c1cccc(Cn2cc(CO)nn2)c1`, the IC50 in series [7] amounted to 0.64 µg/mL (≈ 2.73 µM). Moreover, the midpoint of cytotoxicity in series [8], the CC50, lay at 87.4 µg/mL (≈ 373 µM).

On to `O=C1C=C(OCc2cn(-c3ccc(S)cc3)nn2)C(=O)c2ccccc21`, for which the IC50 in series [1] is more than 20 µM.

`COc1ccc2cc3[n+](cc2c1OCc1cn(-c2ccc(S(=O)(=O)N4CCN(C)CC4)cc2)nn1)CCc1cc2c(cc1-3)OCO2.[Cl-]`: the IC50 in [11] was 0.8 µg/mL.

In the case of `CCOCc1cn(-c2ccc(Cl)cc2)nn1`, the half-inhibitory concentration (IC50) in series [4] was determined as 11.7 µM.

Compound `C[C@H]1[C@H](OC(=O)CCC(=O)O)O[C@@H]2O[C@@]3(C)CC[C@H]4[C@H](C)CC[C@@H]1[C@@]24OO3` [ARTESUNATE] showed a 50% inhibitory concentration (IC50) in series [7] of 0.002 µg/mL (≈ 0.0052 µM). For the same compound, the values for the half-maximal effective concentration (EC50) in series [12], in series [13] and in [14] were 0.0052 µM, 0.0109 µM and 0.0144 µM, respectively. In series [8], this compound showed a CC50 of more than 100 µg/mL.

With `O=C1C=C(OCc2cn(C3=CC(=O)c4ccccc4C3=O)nn2)C(=O)c2ccccc21`, the IC50 in series [1] came to 1.9 µM.

On to `Cc1ccc(OCc2cn(-c3ccc(S(N)(=O)=O)cc3)nn2)cc1`, for which the IC50 in [6] is more than 50 µg/mL.

Regarding `Cc1cc(C)nc(NS(=O)(=O)c2ccc(-n3cc(COc4ccccc4)nn3)cc2)n1`, in series [6], the IC50 is more than 50 µg/mL.

`O=C1c2ccccc2C(=O)N1[C@H]1C(=O)N(c2ccc(OCc3cn(Cc4ccccc4)nn3)cc2)[C@@H]1c1ccc(OCc2cn(Cc3ccccc3)nn2)cc1` showed a concentration for half-maximal inhibition (IC50) in series [3] of 1.81 µM.

As to `Cc1ccc(N2C(=O)[C@@H](Oc3ccccc3)[C@H]2c2ccc(OCc3cn(Cc4ccccc4)nn3)cc2)cc1`, the IC50 in [3] was 15.5 µM.

For the compound `O=C1[C@@H](Oc2ccccc2)[C@@H](c2ccc(OCc3cn(Cc4ccccc4)nn3)cc2)N1c1ccc(OCc2cn(Cc3ccccc3)nn2)cc1`, the 50% inhibitory concentration (IC50) in [3] is less than 0.97 µM.

For `COc1ccc2cc3[n+](cc2c1OCc1cn(-c2ccc(S(=O)(=O)N4CCOCC4)cc2)nn1)CCc1cc2c(cc1-3)OCO2.[Cl-]`, the IC50 in series [11] was 0.5 µg/mL.

In the case of `COc1ccc2cc3[n+](cc2c1OCc1cn(-c2ccc(S(=O)(=O)Nc4ccc([N+](=O)[O-])cc4)cc2)nn1)CCc1cc2c(cc1-3)OCO2.Cl`, the half-maximal inhibitory concentration (IC50) in series [11] came to 20 µg/mL.

`O=[N+]([O-])c1ccc(Cn2cc(CO)nn2)cc1` gave an IC50 in series [7] of 0.62 µg/mL (≈ 2.65 µM). Also, the CC50 in series [8] was more than 100 µg/mL.

Consider `O=C(OCc1cnn(-c2ccccc2)n1)c1ccccc1`, for which, in [4], the concentration for half-maximal inhibition (IC50) turned out to be 27.5 µM.

`NC1=C(n2cc(COC3=CC(=O)c4ccccc4C3=O)nn2)C(=O)c2ccccc2C1=O`: the IC50 in [1] is more than 20 µM.

Consider `O=[N+]([O-])c1ccccc1Cn1cc(CO)nn1`, for which the IC50 in series [7] was 0.65 µg/mL (≈ 2.78 µM). In addition, the CC50 in [8] was 75.5 µg/mL (≈ 322 µM).

(Values after ChEMBL document CHEMBL5512597, “Triazole hybrid compounds: A new frontier in malaria treatment” (Eur J Med Chem, 2023).)
